From article PMC4113456, “Atypical Signaling and Functional Desensitization Response of MAS Receptor to Peptide Ligands” (PLoS ONE, 2014)
Where a chain is given by its changes, count along the chain named.

Experiments:
Type in all cases: cell-based
MAS [1] = biological target: T1, MAS (Homo sapiens, UniProt P04201); test: FLIPR calcium assay, induced myc-tagged WT MAS HEK293 stable cell line
T1 construct: expressed in transfected cells
T1 sequence (P04201 1-325): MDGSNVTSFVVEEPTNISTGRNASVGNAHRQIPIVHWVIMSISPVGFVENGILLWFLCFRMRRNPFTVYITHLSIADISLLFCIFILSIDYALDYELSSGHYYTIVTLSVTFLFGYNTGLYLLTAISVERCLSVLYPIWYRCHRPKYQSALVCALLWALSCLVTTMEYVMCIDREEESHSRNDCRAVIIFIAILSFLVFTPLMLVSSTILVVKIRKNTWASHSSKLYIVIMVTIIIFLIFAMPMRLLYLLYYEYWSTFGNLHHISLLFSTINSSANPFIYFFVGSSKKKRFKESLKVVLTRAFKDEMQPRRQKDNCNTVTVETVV
Experimental: The assay was performed using FLIPR Calcium 5 assay kit (Molecular Devices, Sunnyvale, CA). For calcium measurements, cells at a density of 125,000 cells/well in 100 µl medium were seeded onto a 96-well clear bottom black cell culture plate that was pre-coated with poly-L-lysine. In the calcium assays the cell density of 125,000 cells/well was consistently maintained to minimize variability between independent experiments. The cells were seeded in induction media to induce MAS expression or in complete media for negative controls. The plate was maintained in a cell culture incubator for 26–28 h. The cells were then serum starved for 2 h by replacing the medium with 100 µl of serum free DMEM. In the case of pre-treatment with pan-inhibitor of G protein signaling, BIM-46187, the cells were initially serum starved for 1 h by replacing the medium with 50 µl of serum free DMEM. After 1 h, 50 µl of BIM-46187 was added to the cells to a final concentration of 25 µM and treated for another 1 h. Following serum starvation, 100 µl of calcium sensitive dye along with 2x (2.5 mM final concentration) probenecid (Life Technologies, Grand Island, NY) was added to the cells. During this step, AR-inverse agonist or BIM-46187 was also added at desired concentrations to the calcium dye preparation in case of experiments where cells were pre-treated with these inhibitors. The cells were maintained for one hour in the cell culture incubator. Following this, the 96-well plate containing cells loaded with calcium dye and a U-bottom 96-well plate containing ligands at 5x the desired final concentration in D-PBS (1.47 mM KH2PO4, 138 mM NaCl, 2.67 mM KCl, 8.1 mM Na2HPO4, pH 7.3) were allowed to equilibrate for 15 min on a FlexStation 3 instrument (Molecular Devices, Sunnyvale, CA) at 37°C. The plates were further equilibrated on the instrument for 5 min with the lids removed from the plates. The instrument was programmed in FLEX mode to add ligands (50 µl at 5x concentration) to the cells and to monitor the fluorescence before and after adding the ligands. In re-stimulation and antagonism assays the instrument is programmed to add 35 µl of first ligand followed by addition of the second ligand (35 µl) after 10 min. […] Therefore, when using 5x ligand stock the maximum AR-agonist concentration that could be tested was 10 µM.
In the calcium assays, the maximum response and minimum response values in relative fluorescence units (RFU) were extracted by subtracting the corresponding baseline value wherein baseline is defined as the average fluorescence of all time points before addition of ligand.
(§1) The kinetic parameter t1/2 (time taken to reach half of the maximum response) was determined using SoftMax Pro software supplied with the FlexStation 3 instrument (Molecular Devices, Sunnyvale, CA).
For re-stimulation assays, the data is expressed as the percentage of maximum agonist stimulation to allow for ready comparison between individual experiments. […] For all the assays, the EC50 and IC50 values were estimated by fitting the data to a three parameter dose response using GraphPad Prism software (GraphPad, La Jolla, CA).

MAS [2] = biological target: T1, MAS; test: Intracellular cAMP assay, induced MAS cells; conditions: data not shown
Experimental: Measurement of intracellular cAMP. The intracellular cAMP levels were measured using CatchPoint™ cAMP Fluorescent assay kit from Molecular devices (Molecular Devices, Sunnyvale, CA). For the cAMP assay, the cells were plated at a density of 1.25 million cells/well in a six-well plate. The cells were maintained in a cell culture incubator and induced the following day with doxycycline. The cells were serum starved for 2h following the induction for 26-28h. At this point the serum free media was replaced with 1ml of 3-Isobutyl-1-methylxanthine (Sigma-Aldrich, St. Louis, MO) at 1mM concentration for 15min at 37°C. Following this, 250µl of ligands were added at 5x concentration to the wells and incubated for another 15min at 37°C. The plates were then immediately transferred to ice and the cells were lysed with 150µl of lysis buffer provided with kit. The cAMP levels in the lysed samples were measured according to the protocol provided by the supplier.

MAS M244A mutant [3] = biological target: T2, MAS M244A mutant (Homo sapiens, UniProt P04201, M244A); test: IP1 assay, M244A MAS mutant stable cell line
T2 construct: expressed in transfected cells
T2 sequence (P04201 1-325 M244A): T1 sequence (P04201 1-325) with M244A
Description: The WT MAS expression construct was synthesized with an N-terminal myc-tag (Figure 1) by GenScript (Piscataway, NJ). The myc-tagged WT MAS from this vector was initially sub-cloned into pcDNA3.1 and later sub-cloned into tetracycline/doxycycline inducible vector pcDNA 5/TO (Life Technologies, Grand Island, NY). Four different ligand binding MAS mutants (F112A, I191A, M244A and T270A) were created using site-directed mutagenesis of WT myc-tagged MAS in pcDNA3.1 or pcDNA 5/TO vector background (Agilent Technologies, Santa Clara, CA). […]
IP1 levels in the cells were measured using the IP-One Tb kit (Cisbio US, Bedford, MA). […] Time-resolved ratiometric fluorescence emission measurements at 665 nm and 620 nm were taken after excitation at 343 nm on FlexStation 3 instrument. […]
For re-stimulation assays, the data is expressed as the percentage of maximum agonist stimulation to allow for ready comparison between individual experiments. For the IP1 assay, a standard curve was generated using the 4-Parameter logistic equation fit of the HTRF readings of IP1 standards using the SoftMax Pro software. […] In the luciferase assay, the luminescence measurements (RLU) are presented as a ratio of firefly to renilla luciferase activity. […]

MAS T270A mutant = biological target: T3, MAS T270A mutant (Homo sapiens, UniProt P04201, T270A); test: Calcium assay, T270A MAS mutant stable cell line
T3 construct: expressed in transfected cells
T3 sequence (P04201 1-325 T270A): T1 sequence (P04201 1-325) with T270A
Experimental: (§2) The assay was performed using FLIPR Calcium 5 assay kit (Molecular Devices, Sunnyvale, CA). For calcium measurements, cells at a density of 125,000 cells/well in 100 µl medium were seeded onto a 96-well clear bottom black cell culture plate that was pre-coated with poly-L-lysine. In the calcium assays the cell density of 125,000 cells/well was consistently maintained to minimize variability between independent experiments. The cells were seeded in induction media to induce MAS expression or in complete media for negative controls. The plate was maintained in a cell culture incubator for 26–28 h. The cells were then serum starved for 2 h by replacing the medium with 100 µl of serum free DMEM. In the case of pre-treatment with pan-inhibitor of G protein signaling, BIM-46187, the cells were initially serum starved for 1 h by replacing the medium with 50 µl of serum free DMEM. After 1 h, 50 µl of BIM-46187 was added to the cells to a final concentration of 25 µM and treated for another 1 h. Following serum starvation, 100 µl of calcium sensitive dye along with 2x (2.5 mM final concentration) probenecid (Life Technologies, Grand Island, NY) was added to the cells. During this step, AR-inverse agonist or BIM-46187 was also added at desired concentrations to the calcium dye preparation in case of experiments where cells were pre-treated with these inhibitors. The cells were maintained for one hour in the cell culture incubator. […] The instrument was programmed in FLEX mode to add ligands (50 µl at 5x concentration) to the cells and to monitor the fluorescence before and after adding the ligands. […]
as §1
(§3) For re-stimulation assays, the data is expressed as the percentage of maximum agonist stimulation to allow for ready comparison between individual experiments. […]

MAS M244A mutant [4] = biological target: T2, MAS M244A mutant; test: Calcium assay, M244A MAS mutant stable cell line
Experimental: as §2, §1, §3

MAS [5] = biological target: T1, MAS; test: SRF-RE luciferase reporter assay (Gα12-dependent), induced WT MAS stable cell line; conditions: induced cells
Experimental: The luciferase assay was performed using pGL4 luciferase reporter vectors and Dual-Glo Luciferase Assay System (Promega, Madison, WI). For this assay, the inducible MAS stable cells were initially plated in a 10 cm plate and left overnight in a cell culture incubator. The following day the cells were transfected with 5 µg of pGL4.34 plasmid containing serum response factor response element (SRF-RE)-firefly luciferase reporter gene and 1 µg of pGL4.73 plasmid containing renilla luciferase (as a transfection efficiency control). […] After 8 h of transfection and induction, the cells were seeded onto a 96-well clear bottom black cell culture plate (pre-coated with poly-L-lysine) at a density of 125,000 cells/well in 100 µl of minimal medium (with reduced serum of 0.5%). The plate was maintained in a cell culture incubator for 18–20 h. At this point 50 µl of media in the cells was replaced with 50 µl of serum free media containing ligands at 2x the desired concentration and incubated for an additional 6 h. Finally, the luciferase activity in the cells was measured according the protocol provided by the manufacturer. The luminescence measurements (RLU) in the cells were obtained on FlexStation 3 instrument.
For re-stimulation assays, the data is expressed as the percentage of maximum agonist stimulation to allow for ready comparison between individual experiments. […] In the luciferase assay, the luminescence measurements (RLU) are presented as a ratio of firefly to renilla luciferase activity. For all the assays, the EC50 and IC50 values were estimated by fitting the data to a three parameter dose response using GraphPad Prism software (GraphPad, La Jolla, CA).

| SMILES | t1/2 (time taken to reach half of the maximal calcium response), Calcium assay (MAS [1]; WT MAS) [s] | EC50 (MAS [1]; WT MAS, induced cells) [nM] | Fold over WT, EC50 Calcium assay (MAS [1]; WT construct) | Effect on cAMP levels (MAS [2]) | EC50, IP1 assay (MAS M244A mutant [3]) | EC50, Calcium assay (MAS T270A mutant) | t1/2, Calcium assay (MAS T270A mutant) [s] | EC50, Calcium assay (MAS M244A mutant [4]) | t1/2, Calcium assay (MAS M244A mutant [4]) | EC50 (MAS [5]) [nM] | IC50 (MAS [1]; WT MAS, induced cells, inhibition of constitutive activity) [nM] | IC50, IP1 assay (MAS M244A mutant [3]) | IC50 (MAS [5]) [nM] |
| --- | --- | --- | --- | --- | --- | --- | --- | --- | --- | --- | --- | --- | --- |
| COc1cc([N+](=O)[O-])ccc1S(=O)(=O)N1CC(CN2CCN(c3ccccn3)CC2)C(c2cccc(F)c2)C1 (stereo not shown) [AR-agonist] | 31.2 ± 2.1 | 1500 ± 300 | 1 | decreased cAMP levels | cbd | cbd | 40.0 ± 1.2 | cbd | cbd | 500 ± 100 | – | – | – |
| C=CCCN1CCC2(CC1)CN(C(=O)c1c(F)cccc1F)c1ccc(Cl)cc12 [AR-inverse] | – | – | – | – | – | – | – | – | – | – | 900 ± 600 | cbd | 400 ± 100 |
